Test results published in US20250114448A1, “SAPONIN-BASED ADJUVANTS AND VACCINES” (ASOCIACIÓN CENTRO DE INVESTIGACIÓN COOPERATIVA EN …, priority 2022, published 2025).

Assays:
Set-up in all cases: species or system mice (C57BL/6)
[1] = test system: anti-OVA IgG antibodies; test: Adjuvant activity: anti-OVA total IgG (ELISA) in sera of mice vaccinated with OVA plus saponin (In Vivo Experiment 1); conditions: C75BL6 mice, three subcutaneous injections 10 days apart, OVA 10 μg + saponin 50 μg, endpoint sera day 28, total IgG ELISA
Method: Vaccination of mice. In the case of the synthetic saponin adjuvants, groups of five mice (C57BL/6, female, 6-8 weeks old) were vaccinated subcutaneously three times every 10 days (days 0, 11, and 21) with endotoxin-free OVA (EndoFit™ Ovalbumin, Invitrogen) (10 μg/mouse) in phosphate-buffered saline (PBS, 100 μL) either alone (no-adjuvant control group) or with the synthetic saponins (50 μg/mouse). To analyze the antibody responses over time, mice were bled via the submandibular vein at the indicated pre-(day −1) and post-vaccination time points (days 18), and by cardiac puncture at the experimental endpoint (day 28). Blood was collected in BD Microtainer® tubes (Clot Activator/SST™ Gel) and centrifuged at 7500 g for 10 min, after which serum was harvested and stored at −20° C. until further analysis.
Quantification of antibody production. Antibody titers against OVA protein for the saponin adjuvants, or against MUC1 and TnMUC1 antigens in the case of the conjugate constructs were measured by an indirect enzyme-linked immunosorbent assay (ELISA). Briefly, ELISA plates (Thermo Scientific) were coated with endotoxin-free OVA (EndoFit™ Ovalbumin; Invitrogen) or with BSA-MUC1 or BSA-TnMUC1 conjugates at 0.05 μg/well in carbonate buffer (pH 9.5), and plates were incubated overnight at 4° C. After washing the wells (PBS, 10 mM, containing 0.05% Tween 20), plates were blocked with 10% of fetal calf serum (FCS, Biowest) in PBS buffer for 1 h. Serial dilutions of mouse sera in blocking buffer (10% FCS in PBS buffer) were added to the wells with appropriate controls and incubated for 1 h at room temperature. After washing, goat anti-mouse total IgG (Jackson ImmunoResearch) or subclass specific IgG1, IgG2b, IgG2c and IgG3 (SouthernBiotech) antibodies conjugated to horseradish peroxidase (HRP) were added to each well at the dilution indicated by the manufacturer. After 1 h incubation at room temperature, KPL SureBlue Reserve™ commercial solution (100 μL/well, SeraCare) containing 3,3′,5,5′-tetramethylbenzidine (TMB) was added as peroxidase substrate and after incubation for 10 min, the reaction was stopped with 2 N H2SO4 (100 μL/well). Absorbance (OD, 450 nm) was immediately measured using a BioTek® Synergy HT multi-detection microplate reader.
A straightforward proof-of-principle in vivo experiment was carried out to directly compare their adjuvant activities of prior art compound 12 and the compounds of the invention 1 and 2 in terms of IgG antibody production, using chicken ovalbumin (OVA) as a model antigen. […] Endpoint sera after three immunizations were probed via ELISA assays by coating 96-well plates with OVA (0.05 μg/ml) and total IgG optical density (OD) values (at day 28) were measured (FIG. 1).

[2] = test system: anti-MUC1 IgG antibodies; test: Self-adjuvanting vaccine: anti-MUC1 total IgG (ELISA, BSA-MUC1 coated plates) in sera of immunized mice (In Vivo Experiment 2); conditions: C57BL/6 mice, subcutaneous, days 0, 11, 21, dose equimolar to 50 μg of MUC1 per injection, no external adjuvant, endpoint sera day 28, versus pre-sera
Method: (§1) Concerning the saponin-antigen conjugates, groups of five mice (C57BL/6, female, 6-8 weeks old) were vaccinated subcutaneously three times every […] (days 0, 11, and 21) with the glycoconjugate constructs (50 μg/mouse) in phosphate-buffered saline (PBS, 100 μl). To determine the antibody responses over time, mice were bled via submandibular vein at the indicated post-vaccination time point (day 18), and by cardiac puncture at the experimental endpoint (day 28). Blood was collected in BD Microtainer® tubes (Clot Activator/SST™ Gel) and centrifuged at 13000 g for 10 min. Sera were harvested and stored at −20° C. until further analysis.
(§2) Quantification of antibody production. Antibody titers against OVA protein for the saponin adjuvants, or against MUC1 and TnMUC1 antigens in the case of the conjugate constructs were measured by an indirect enzyme-linked immunosorbent assay (ELISA). Briefly, ELISA plates (Thermo Scientific) were coated with endotoxin-free OVA (EndoFit™ Ovalbumin; Invitrogen) or with BSA-MUC1 or BSA-TnMUC1 conjugates at 0.05 μg/well in carbonate buffer (pH 9.5), and plates were incubated overnight at 4° C. After washing the wells (PBS, 10 mM, containing 0.05% Tween 20), plates were blocked with 10% of fetal calf serum (FCS, Biowest) in PBS buffer for 1 h. […] Absorbance (OD, 450 nm) was immediately measured using a BioTek® Synergy HT multi-detection microplate reader. […]

[3] = test system: anti-TnMUC1 IgG antibodies; test: Self-adjuvanting vaccine: anti-TnMUC1 total IgG (ELISA, BSA-TnMUC1 coated plates) in sera of immunized mice (In Vivo Experiment 2); conditions: C57BL/6 mice, subcutaneous, days 0, 11, 21, dose equimolar to 50 μg of MUC1 per injection, no external adjuvant, endpoint sera day 28, versus pre-sera
Method: as §1, §2

C[C@@H]1O[C@@H](O[C@H]2[C@H](OC(=O)[C@]34CCC(C)(C)C[C@H]3C3=CC[C@@H]5[C@@]6(C)CCC(=O)C(C)(C)[C@@H]6CC[C@@]5(C)[C@]3(C)C[C@H]4O)O[C@H](CO)[C@H](NC(=O)CCCCCCCCCCC(=O)O)[C@@H]2O)[C@H](O)[C@H](O)[C@H]1O[C@@H]1OC[C@@H](O)[C@H](O)[C@H]1O [compound 1]
anti-OVA IgG antibody response versus negative control group (OVA alone) [1]: significantly higher than that of the negative control group | anti-OVA IgG titers compared to those induced by previous EA lead saponin 12 (C3-hydroxyl) [1]: increased

C[C@@H]1O[C@@H](O[C@H]2[C@H](OC(=O)[C@]34CCC(C)(C)C[C@H]3C3=CC[C@@H]5[C@@]6(C)CC/C(=N/O)C(C)(C)[C@@H]6CC[C@@]5(C)[C@]3(C)C[C@H]4O)O[C@H](CO)[C@H](NC(=O)CCCCCCCCCCC(=O)O)[C@@H]2O)[C@H](O)[C@H](O)[C@H]1O[C@@H]1OC[C@@H](O)[C@H](O)[C@H]1O [compound 2]
anti-OVA IgG antibody response versus negative control group (OVA alone) [1]: significantly higher than that of the negative control group | anti-OVA IgG titers compared to those induced by previous EA lead saponin 12 (C3-hydroxyl) [1]: increased (significantly in the latter case)

CC[C@H](C)C(NC(=O)[C@H](CCCCN)NC(=O)[C@H](Cc1c[nH]c2ccccc12)NC(=O)[C@@H](NC(=O)[C@H](C)NC(=O)[C@H](Cc1ccccc1)NC(=O)[C@H](CC(C)C)NC(=O)[C@H](CCCCN)CC(=O)NO/N=C1/CCC2(C)C(CCC3(C)C2CC=C2C4CC(C)(C)CC[C@]4(C(=O)O[C@]4([C@@H]5OC(C)[C@H](O[C@@H]6OC[C@@H](O)C(O)C6O)C(O)C5O)OC(CO)[C@H](NC(=O)CCCCCNC(=O)COCCOCCOCC(=O)NCC(=O)N[C@H](C(=O)N[C@H](C(=O)O[C@@H](CO)C(=O)N[C@@H](C)C(=O)N5CCC[C@H]5C(=O)N[C@@H](CC(=O)O)C(=O)N[C@H](C(=O)N[C@@H](CCCNC(=N)N)C(=O)N5CCC[C@H]5C(=O)N[C@@H](C)C(=O)N5CCC[C@H]5C(=O)NCC(=O)N[C@@H](CO)C(=O)N[C@H](C(=O)N[C@@H](C)C(N)=O)C(C)O)C(C)O)C(C)O)C(C)C)C(O)C4O)C(O)CC23C)C1(C)C)C(C)C)C(=O)N[C@H](C(=O)N[C@@H](Cc1ccc(O)cc1)C(=O)N[C@@H](CCCCN)C(=O)N[C@@H](CC(=O)O)C(=O)N[C@H](C(=O)O)[C@@H](C)O)[C@@H](C)O (stereo partly drawn) [compound 10, PV-Echinocystic Acid Saponin-MUC1 Tri-Conjugate]
production of total anti-MUC1 IgG antibodies [2]: high levels

CC[C@H](C)C(NC(=O)[C@H](CCCCN)NC(=O)[C@H](Cc1c[nH]c2ccccc12)NC(=O)[C@@H](NC(=O)[C@H](C)NC(=O)[C@H](Cc1ccccc1)NC(=O)[C@H](CC(C)C)NC(=O)[C@H](CCCCN)CC(=O)NO/N=C1/CCC2(C)C(CCC3(C)C2CC=C2C4CC(C)(C)CC[C@]4(C(=O)O[C@]4([C@@H]5OC(C)[C@H](O[C@@H]6OC[C@@H](O)C(O)C6O)C(O)C5O)OC(CO)[C@H](NC(=O)CCCCCNC(=O)COCCOCCOCC(=O)NCC(=O)N[C@H](C(=O)N[C@H](C(=O)O[C@@H](CO)C(=O)N[C@@H](C)C(=O)N5CCC[C@H]5C(=O)N[C@@H](CC(=O)O)C(=O)N[C@H](C(=O)N[C@@H](CCCNC(=N)N)C(=O)N5CCC[C@H]5C(=O)N[C@@H](C)C(=O)N5CCC[C@H]5C(=O)NCC(=O)N[C@@H](CO)C(=O)N[C@H](C(=O)N[C@@H](C)C(N)=O)C(C)O)C(C)O[C@H]5OC(CO)[C@H](O)C(O)C5NC(C)=O)C(C)O)C(C)C)C(O)C4O)C(O)CC23C)C1(C)C)C(C)C)C(=O)N[C@H](C(=O)N[C@@H](Cc1ccc(O)cc1)C(=O)N[C@@H](CCCCN)C(=O)N[C@@H](CC(=O)O)C(=O)N[C@H](C(=O)O)[C@@H](C)O)[C@@H](C)O (stereo partly drawn) [compound 11, PV-Echinocystic Acid Saponin-TnMUC1 Tri-Conjugate]
production of total anti-TnMUC1 IgG antibodies [3]: high levels
